One assay addresses T1, rat CB-1 receptor (Rattus norvegicus, UniProt P20272).
T1 construct: The tissue obtained from the brain of SD rats was homogenized; from tissue; host or cells: brain of SD rats (membrane pellet of homogenate)
As to the kind of experiment: rat CB-1 receptor binding protocol with [3H]CP-55940.
Conditions: not given
T1 sequence (P20272 whole entry): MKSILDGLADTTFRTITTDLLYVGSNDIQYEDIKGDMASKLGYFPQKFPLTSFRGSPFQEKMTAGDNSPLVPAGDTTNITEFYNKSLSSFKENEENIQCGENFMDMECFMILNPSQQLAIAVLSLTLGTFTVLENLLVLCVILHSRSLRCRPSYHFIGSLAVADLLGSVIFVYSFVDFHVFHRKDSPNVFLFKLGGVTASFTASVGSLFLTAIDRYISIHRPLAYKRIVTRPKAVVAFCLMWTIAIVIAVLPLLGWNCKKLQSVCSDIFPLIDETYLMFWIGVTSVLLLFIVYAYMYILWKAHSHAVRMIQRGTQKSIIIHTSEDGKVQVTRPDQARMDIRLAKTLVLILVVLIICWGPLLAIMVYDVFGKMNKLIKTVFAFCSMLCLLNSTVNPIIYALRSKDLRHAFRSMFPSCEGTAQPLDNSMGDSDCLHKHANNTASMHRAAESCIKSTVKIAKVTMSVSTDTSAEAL
As usually defined, the IC50 is the concentration that gives 50% inhibition. The molecule `Cc1c(-c2nnc(C3CCCCC3)o2)nc(-c2ccc(Cl)cc2Cl)n1-c1ccc(Br)cc1` [Example 19, 2-(1-(4-Bromophenyl)-2-(2,4-dichlorophenyl)-5-methyl-1H-imidazol-4-yl)-5-cyclohexyl-1,3,4-oxadiazole] yielded an IC50 of 70 nM. Still for that read-out and setting: the same measure for `Cc1c(-c2nnc(C3CCC3)o2)nc(-c2ccc(Cl)cc2Cl)n1-c1ccc(Br)cc1` [Example 22, 2-(1-(4-Bromophenyl)-2-(2,4-dichlorophenyl)-5-methyl-1H-imidazol-4-yl)-5-cyclobutyl-1,3,4-oxadiazole]: 29.3 nM; for `CCCC(C)c1nnc(-c2nc(-c3ccc(Cl)cc3Cl)n(-c3ccc(Cl)cc3)c2C)o1` (centres unmarked) [Example 7, 2-(1-(4-Chlorophenyl)-2-(2,4-dichlorophenyl)-5-methyl-1H-imidazol-4-yl)-5-(pentan-2-yl)-1,3,4-oxadiazole]: 14.2 nM. As for `CCc1c(-c2nnc(C3(c4ccc(Cl)cc4)CC3)o2)nc(-c2ccc(Cl)cc2Cl)n1-c1ccc(Br)cc1` [Example 40, 2-(1-(4-Bromophenyl)-2-(2,4-dichlorophenyl)-5-ethyl-1H-imidazol-4-yl)-5-(1-(4-chlorophenyl)cyclopropyl)-1,3,4-oxadiazole], the IC50 is 9.05 nM.

Still in this assay, the particulars now being: [3H]CP-55940, brain tissue of SD rats, 30 °C for 60 min; read-out: IC50.
As for `Cc1c(-c2nnc(C3(C(F)(F)F)CCC3)s2)nc(-c2ccc(Cl)cc2Cl)n1-c1ccc(Br)cc1` [Example 137, 2-(1-(4-Bromophenyl)-2-(2,4-dichlorophenyl)-5-methyl-1H-imidazol-4-yl)-5-(1-(trifluoromethyl)cyclobutyl)-1,3,4-thiadiazole], the IC50 is 8.52 nM.

Consider `CCCc1c(-c2nnc(C3(c4ccc(Cl)cc4)CCC3)s2)nc(-c2ccc(Cl)cc2Cl)n1-c1ccc(Br)cc1` [Example 124, 2-(1-(4-Bromophenyl)-2-(2,4-dichlorophenyl)-5-propyl-1H-imidazol-4-yl)-5-(1-(4-chlorophenyl)cyclobutyl)-1,3,4-thiadiazole], for which the IC50 is 1.79 nM. Still for that read-out and setting: under `Cc1c(-c2ncc(C(C)C)o2)nc(-c2ccc(Cl)cc2Cl)n1-c1ccc(Cl)cc1` [Example 183, 2-(1-(4-Chlorophenyl)-2-(2,4-dichlorophenyl)-5-methyl-1H-imidazol-4-yl)-5-isopropyloxazole] stands 26.4 nM; under `CCc1c(-c2nnc(C3(c4ccc(Cl)cc4)CC3)s2)nc(-c2ccccc2Cl)n1-c1ccc(Br)cc1` [Example 148, 2-(1-(4-Bromophenyl)-2-(2-chlorophenyl)-5-ethyl-1H-imidazol-4-yl)-5-(1-(4-chlorophenyl)cyclopropyl)-1,3,4-thiadiazole], 4.93 nM; under `CC(C)c1c(-c2nnc(C3(c4ccccc4)CC3)o2)nc(-c2ccc(Cl)cc2Cl)n1-c1ccc(Cl)cc1` [Example 28, 2-(1-(4-Chlorophenyl)-2-(2,4-dichlorophenyl)-5-isopropyl-1H-imidazol-4-yl)-5-(1-phenylcyclopropyl)-1,3,4-oxadiazole], 15.5 nM. Same read-out and setting: the same measure for `FC(F)(F)C1(c2nnc(-c3nc(-c4ccc(Cl)cc4Cl)n(-c4ccc(Br)cc4)c3Cn3cncn3)o2)CC1` [Example 75, 2-(5-((1H-1,2,4-Triazol-1-yl)methyl)-1-(4-bromophenyl)-2-(2,4-dichlorophenyl)-1H-imidazol-4-yl)-5-(1-(trifluoromethyl)cyclopropyl)-1,3,4-oxadiazole]: 8.77 nM. For `CCc1c(-c2nnc(C(C)CC)s2)nc(-c2ccc(Cl)cc2Cl)n1-c1ccc(Cl)cc1` (centres unmarked) [Example 107, 2-sec-Butyl-5-(1-(4-chlorophenyl)-2-(2,4-dichlorophenyl)-5-ethyl-1H-imidazol-4-yl)-1,3,4-thiadiazole], the IC50 was found to be 8.46 nM. On the same count and under the same terms, under `CCCc1c(-c2nnc(C3(c4ccc(Cl)cc4)CC3)s2)nc(-c2ccc(Cl)cc2Cl)n1-c1ccc(Br)cc1` [Example 123, 2-(1-(4-Bromophenyl)-2-(2,4-dichlorophenyl)-5-propyl-1H-imidazol-4-yl)-5-(1-(4-chlorophenyl)cyclopropyl)-1,3,4-thiadiazole] stands 4.48 nM; under `CCCc1c(-c2nnc(C(C)(C)C)o2)nc(-c2ccc(Cl)cc2Cl)n1-c1ccc(Br)cc1` [Example 29, 2-(1-(4-Bromophenyl)-2-(2,4-dichlorophenyl)-5-propyl-1H-imidazol-4-yl)-5-tert-butyl-1,3,4-oxadiazole], 71.5 nM; under `Cc1c(-c2ncc(C(C)C)s2)nc(-c2ccc(Cl)cc2Cl)n1-c1ccc(Cl)cc1` [Example 196, 2-(1-(4-Chlorophenyl)-2-(2,4-dichlorophenyl)-5-methyl-1H-imidazol-4-yl)-5-isopropylthiazole], 16 nM.

Take `Cc1c(-c2nnc(C3CCC3)o2)nc(-c2ccc(Cl)cc2Cl)n1-c1ccc(Cl)cc1` [Example 4, 2-(1-(4-Chlorophenyl)-2-(2,4-dichlorophenyl)-5-methyl-1H-imidazol-4-yl)-5-cyclobutyl-1,3,4-oxadiazole]: the IC50 was found to be 38.7 nM. On the same count and under the same terms, the same measure for `CCc1cnc(-c2nc(-c3ccc(Cl)cc3Cl)n(-c3ccc(Cl)cc3)c2C)s1` [Example 194, 2-(1-(4-Chlorophenyl)-2-(2,4-dichlorophenyl)-5-methyl-1H-imidazol-4-yl)-5-ethylthiazole]: 70.2 nM; for `CCc1oc(-c2nc(-c3ccc(Cl)cc3Cl)n(-c3ccc(Cl)cc3)c2C)nc1C` [Example 192, 2-(1-(4-Chlorophenyl)-2-(2,4-dichlorophenyl)-5-methyl-1H-imidazol-4-yl)-5-ethyl-4-methyloxazole]: 77.9 nM.

Take `CCCc1c(-c2nnc(C3(c4ccc(Cl)cc4)CC3)s2)nc(-c2ccc(Cl)cc2Cl)n1-c1ccc(Cl)cc1` [Example 127, 2-(1-(4-Chlorophenyl)-2-(2,4-dichlorophenyl)-5-propyl-1H-imidazol-4-yl)-5-(1-(4-chlorophenyl)cyclopropyl)-1,3,4-thiadiazole]: the IC50 was 3.43 nM.

As to `CCCc1c(-c2nnc(C3(c4ccc(Cl)cc4)CCC3)o2)nc(-c2ccc(Cl)cc2Cl)n1-c1ccc(Br)cc1` [Example 34, 2-(1-(4-Bromophenyl)-2-(2,4-dichlorophenyl)-5-propyl-1H-imidazol-4-yl)-5-(1-(4-chlorophenyl)cyclobutyl)-1,3,4-oxadiazole], the IC50 came out at 9.05 nM. The same measure, in the same setting: the same measure for `Cc1c(-c2ncc(C3CCCCC3)s2)nc(-c2ccc(Cl)cc2Cl)n1-c1ccc(Cl)cc1` [Example 193, 2-(1-(4-Chlorophenyl)-2-(2,4-dichlorophenyl)-5-methyl-1H-imidazol-4-yl)-5-cyclohexylthiazole]: 74.5 nM. Still for that read-out and setting: the same measure for `CCc1c(-c2nnc(C3(c4ccc(Cl)cc4)CCCC3)o2)nc(-c2ccc(Cl)cc2Cl)n1-c1ccc(Br)cc1` [Example 45, 2-(1-(4-Bromophenyl)-2-(2,4-dichlorophenyl)-5-ethyl-1H-imidazol-4-yl)-5-(1-(4-chlorophenyl)cyclopentyl)-1,3,4-oxadiazole]: 11.4 nM; for `CCc1c(-c2nnc(C3CCCC3)s2)nc(-c2ccc(Cl)cc2Cl)n1-c1ccc(Cl)cc1` [Example 102, 2-(1-(4-Chlorophenyl)-2-(2,4-dichlorophenyl)-5-ethyl-1H-imidazol-4-yl)-5-cyclopentyl-1,3,4-thiadiazole]: 17.6 nM; for `CCCCC(C)c1nnc(-c2nc(-c3ccc(Cl)cc3Cl)n(-c3ccc(Cl)cc3)c2C)s1` (centres unmarked) [Example 95, 2-(1-(4-Chlorophenyl)-2-(2,4-dichlorophenyl)-5-methyl-1H-imidazol-4-yl)-5-(hexan-2-yl)-1,3,4-thiadiazole]: 15 nM.

In the case of `CCc1c(-c2nnc(C3(C(F)(F)F)CC3)s2)nc(-c2ccccc2Cl)n1-c1ccc(Br)cc1` [Example 146, 2-(1-(4-Bromophenyl)-2-(2-chlorophenyl)-5-ethyl-1H-imidazol-4-yl)-5-(1-(trifluoromethyl)cyclopropyl)-1,3,4-thiadiazole], the IC50 was found to be 11.5 nM. Still for that read-out and setting: under `CCCCC(C)c1nnc(-c2nc(-c3ccc(Cl)cc3Cl)n(-c3ccc(Cl)cc3)c2C)o1` (centres unmarked) [Example 6, 2-(1-(4-Chlorophenyl)-2-(2,4-dichlorophenyl)-5-methyl-1H-imidazol-4-yl)-5-(hexan-2-yl)-1,3,4-oxadiazole] stands 12.9 nM; under `CCCC(C)c1nnc(-c2nc(-c3ccc(Cl)cc3Cl)n(-c3ccc(Cl)cc3)c2CC)o1` (centres unmarked) [Example 17, 2-(1-(4-Chlorophenyl)-2-(2,4-dichlorophenyl)-5-ethyl-1H-imidazol-4-yl)-5-(pentan-2-yl)-1,3,4-oxadiazole], 11.5 nM. Same read-out and setting: the same measure for `CCc1c(-c2nnc(C3(c4ccc(Cl)cc4)CCC3)s2)nc(-c2ccc(Cl)cc2Cl)n1-c1ccc(Br)cc1` [Example 131, 2-(1-(4-Bromophenyl)-2-(2,4-dichlorophenyl)-5-ethyl-1H-imidazol-4-yl)-5-(1-(4-chlorophenyl)cyclobutyl)-1,3,4-thiadiazole]: 4.79 nM; for `Cc1c(-c2nnc(C3(C(F)(F)F)CC3)o2)nc(-c2ccccc2Cl)n1-c1ccc(Br)cc1` [Example 52, 2-(1-(4-Bromophenyl)-2-(2-chlorophenyl)-5-methyl-1H-imidazol-4-yl)-5-(1-(trifluoromethyl)cyclopropyl)-1,3,4-oxadiazole]: 18.6 nM; for `CCc1c(-c2nnc(C3CCC3)s2)nc(-c2ccc(Cl)cc2Cl)n1-c1ccc(Br)cc1` [Example 112, 2-(1-(4-Bromophenyl)-2-(2,4-dichlorophenyl)-5-ethyl-1H-imidazol-4-yl)-5-cyclobutyl-1,3,4-thiadiazole]: 14 nM. Still for that read-out and setting: the same measure for `Cc1c(-c2ncc(C(C)(C)C)s2)nc(-c2ccc(Cl)cc2Cl)n1-c1ccc(Br)cc1` [Example 200, 2-(1-(4-Bromophenyl)-2-(2,4-dichlorophenyl)-5-methyl-1H-imidazol-4-yl)-5-tert-butylthiazole]: 16 nM; for `Cc1c(-c2nnc(C3CCCCCC3)s2)nc(-c2ccc(Cl)cc2Cl)n1-c1ccc(Cl)cc1` [Example 94, 2-(1-(4-Chlorophenyl)-2-(2,4-dichlorophenyl)-5-methyl-1H-imidazol-4-yl)-5-cycloheptyl-1,3,4-thiadiazole]: 21.6 nM; for `CCc1c(-c2nnc(C3(C(F)(F)F)CCC3)s2)nc(-c2ccc(Cl)cc2Cl)n1-c1ccc(Br)cc1` [Example 140, 2-(1-(4-Bromophenyl)-2-(2,4-dichlorophenyl)-5-ethyl-1H-imidazol-4-yl)-5-(1-(trifluoromethyl)cyclobutyl)-1,3,4-thiadiazole]: 6.74 nM.

Source of the values: US20080207705A1, “Heteroaryl-Imidazole Derivatives as Cannabinoid CB1 Receptor Antagonists” (Green Cross Corporation, priority 2007, published 2008).
